Molecular target: T1, recombinant His-tagged cytoplasmic domains of TRKA receptor (NTRK1, PV3144, aa 441-796) (Homo sapiens, UniProt P04629)
T1 construct: aa 441-796; His; purchased Invitrogen PV3144
Experiment: Isolated TRK enzyme assay (HTRF KinEASE-TK, PV3144 TrkA enzyme assay)
Type: biochemical
Settings: 4 nM enzyme, 40 uM ATP, 35 min, arithmetic mean where more than one reading
Procedure: Isolated TRK Enzyme assays use the HTRF KinEASE-TK kit (Cisbio Cat #62TK0PEJ) with recombinant His-tagged cytoplasmic domains of TRKA receptor sourced from Invitrogen (see table below). This activity-assay measures the phosphorylation of tyrosine residues within a substrate from the HTRF kit which has been validated by Cisbio for a variety of tyrosine kinases including the TRK receptors.
0.5 mM stock solutions of test compounds are prepared and serially diluted in 100% DMSO. […] Greiner low volume black plates containing 0.2 ul of serially diluted compound, standard and HPE/ZPE are created using the Bravo nanolitre dispenser.
1× enzyme buffer is prepared from 5× Enzymatic Buffer from the Cisbio KinEASE TK kit using MilliQ water. The buffer is then supplemented with 10 mM MgCl and 2 mM DTT (both from Sigma).
Following this preactivation step, 5 ul/well of enzyme+ATP mix is added using a Multidrop Micro to the assay plate, spotted with 0.2 ul 100% DMSO compound. This is left for 20 mins at room temperature before adding 5 ul of 2 uM TK-substrate-Biotin (from the Cisbio kit) diluted in 1× enzyme buffer (1 uM FAC) using the Multidrop Micro. The reaction is incubated at room temperature for the optimized assay reaction time (see table).
After the Detection Reagent addition, plates are covered and incubated at room temperature for 60 minutes. […] Test compound data are expressed as percentage inhibition defined by HPE and ZPE values for each plate. Percentage inhibition in the presence of test compound is plotted against compound concentration on a log scale to determine an IC50 from the resultant sigmoid curve.
Where more than one reading was taken, the arithmetic mean is presented.

T1 sequence (P04629 441-796): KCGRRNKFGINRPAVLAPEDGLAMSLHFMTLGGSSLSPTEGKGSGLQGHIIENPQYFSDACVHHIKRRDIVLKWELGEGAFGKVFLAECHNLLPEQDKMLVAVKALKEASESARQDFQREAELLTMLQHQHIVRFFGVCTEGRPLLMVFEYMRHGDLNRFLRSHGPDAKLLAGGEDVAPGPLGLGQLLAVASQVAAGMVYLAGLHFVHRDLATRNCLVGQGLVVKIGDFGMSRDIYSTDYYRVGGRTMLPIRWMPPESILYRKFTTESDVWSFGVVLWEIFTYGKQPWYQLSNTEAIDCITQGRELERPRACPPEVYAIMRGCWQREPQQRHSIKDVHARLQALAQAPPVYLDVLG

| Structure (SMILES) | IC50 |
| --- | --- |
| CS(=O)(=O)Cn1cc(-c2cc(C(N)=O)c(O[C@H]3CCN(C(=O)Cc4ccc(OC5CC5)cc4)C[C@@H]3F)cn2)cn1 [Example 165, 5-{[(3S,4S)-1-{[4-(cyclopropyloxy)phenyl]acetyl}-3-fluoropiperidin-4-yl]oxy}-2-{1-[(methylsulfonyl)methyl]-1H-pyrazol-4-yl}pyridine-4-carboxamide] | 15.9 nM |
| NC(=O)c1cc(-c2cn(C[C@@H](O)CO)cn2)ccc1OC1CCN(C(=O)Cc2ccc(OC(F)(F)F)cc2)CC1 [Example 126, 5-{1-[(2R)-2,3-dihydroxypropyl]-1H-imidazol-4-yl}-2-[(1-{[4-(trifluoromethoxy)phenyl]acetyl}piperidin-4-yl)oxy]benzamide] | 2.9 nM |
| Cn1cnc(-c2ccc(OC3CCN(C(=O)Cc4ccc(OC5CC5)cc4)CC3)c(C(N)=O)c2)c1 [Example 17, 2-[(1-{[4-(cyclopropyloxy)phenyl]acetyl}piperidin-4-yl)oxy]-5-(1-methyl-1H-imidazol-4-yl)benzamide] | 10.4 nM |
| Cc1nc(-c2cnc(O[C@@H]3CCN(C(=O)Cc4ccc(OC(F)(F)F)cc4)C[C@@H]3F)c(C(N)=O)c2)c[nH]1 [Example 120] | 1.3 nM |
| NC(=O)c1cc(-c2cn[nH]c2)cnc1O[C@@H]1CCN(C(=O)Cc2ccc(OC(F)(F)F)cc2)C[C@@H]1F [Example 70, 2-{[(3S,4R)-3-fluoro-1-{[4-(trifluoromethoxy)phenyl]acetyl}piperidin-4-yl]oxy}-5-(1H-pyrazol-4-yl)pyridine-3-carboxamide] | 1.6 nM |
| Cc1n[nH]c(C)c1-c1cnc(O[C@H]2CCN(C(=O)Cc3ccc(OC4CC4)cn3)C[C@@H]2F)c(C(N)=O)c1 [Example 167, 2-{[(3S,4S)-1-{[5-(cyclopropyloxy)pyridin-2-yl]acetyl}-3-fluoropiperidin-4-yl]oxy}-5-(3,5-dimethyl-1H-pyrazol-4-yl)pyridine-3-carboxamide] | 19.4 nM |
| NC(=O)c1cc(-c2cn[nH]c2)cnc1O[C@H]1CCN(C(=O)Cc2ccc(OC(F)(F)F)cc2)C[C@H]1F [Example 72, 2-{[(3R,4S)-3-fluoro-1-{[4-(trifluoromethoxy)phenyl]acetyl}piperidin-4-yl]oxy}-5-(1H-pyrazol-4-yl)pyridine-3-carboxamide] | 1.3 nM |
| Cn1cnc(-c2ccc(OC3CCN(C(=O)Cc4ccc(OC(C)(F)F)cn4)CC3)c(C(N)=O)c2)c1 [Example 168, 2-[(1-{[5-(1,1-difluoroethoxy)pyridin-2-yl]acetyl}piperidin-4-yl)oxy]-5-(1-methyl-1H-imidazol-4-yl)benzamide] | 17.3 nM |
| NC(=O)c1cc(-c2c[nH]c(C3(O)COC3)n2)ccc1OC1CCN(C(=O)Cc2ccc(OC(F)(F)F)cc2)CC1 [Example 56, 5-[2-(3-hydroxyoxetan-3-yl)-1H-imidazol-5-yl]-2-[(1-{[4-(trifluoromethoxy)phenyl]acetyl}piperidin-4-yl)oxy]benzamide] | 5.1 nM |
| Cn1cc(-c2ccc(OC3CCN(C(=O)Cc4ccc(OC(F)(F)F)c(Cl)c4)CC3)c(C(N)=O)c2)cn1 [Example 110, 2-[(1-{[3-chloro-4-(trifluoromethoxy)phenyl]acetyl}piperidin-4-yl)oxy]-5-(1-methyl-1H-pyrazol-4-yl)benzamide] | 110 nM |
| NC(=O)c1cc(-c2c[nH]cn2)cnc1O[C@H]1CCN(C(=O)Cc2ccc(OC(F)(F)F)cc2)C[C@@H]1F [Example 82, 2-{[(3S,4S)-3-fluoro-1-{[4-(trifluoromethoxy)phenyl]acetyl}piperidin-4-yl]oxy}-5-(1H-imidazol-4-yl)pyridine-3-carboxamide] | 4.2 nM |
| NC(=O)c1cc(-c2cn(CCO)cn2)cnc1OC1CCN(C(=O)Cc2ccc(OC(F)(F)F)cc2)CC1 [Example 116, 5-[1-(2-hydroxyethyl)-1H-imidazol-4-yl]-2-[(1-{[4-(trifluoromethoxy)phenyl]acetyl}piperidin-4-yl)oxy]pyridine-3-carboxamide] | 8.1 nM |

Continued by falling IC50, values first:

| IC50 | Structure (SMILES) |
| --- | --- |
| 16.7 nM | N#Cc1cc(-c2ccc(OC3CCN(C(=O)Cc4ccc(OC(F)(F)F)cc4)CC3)c(C(N)=O)c2)cs1 [Example 144, 5-(5-cyanothiophen-3-yl)-2-[(1-{[4-(trifluoromethoxy)phenyl]acetyl}piperidin-4-yl)oxy]benzamide] |
| 13.2 nM | Cc1nc[nH]c1-c1cnc(OC2CCN(C(=O)Cc3ccc(OC(F)(F)F)cc3)CC2)c(C(N)=O)c1 [Example 179, 5-(4-methyl-1H-imidazol-5-yl)-2-[(1-{[4-(trifluoromethoxy)phenyl]acetyl}piperidin-4-yl)oxy]pyridine-3-carboxamide] |
| 12 nM | NC(=O)c1cc(-c2ccc(CO)cc2)cnc1OC1CCN(C(=O)Cc2ccc(OC(F)(F)F)cc2)CC1 [Example 151, 5-[4-(hydroxymethyl)phenyl]-2-[(1-{[4-(trifluoromethoxy)phenyl]acetyl}piperidin-4-yl)oxy]pyridine-3-carboxamide] |
| 11 nM | NC(=O)c1cc(-c2cccnc2)ccc1OC1CCN(C(=O)Cc2ccc(OC(F)(F)F)cc2)CC1 [Example 150, 5-(pyridin-3-yl)-2-[(1-{[4-(trifluoromethoxy)phenyl]acetyl}piperidin-4-yl)oxy]benzamide] |
| 10.3 nM | Cn1cc(-c2ccc(OC3CCN(C(=O)Nc4ccc(OC(F)(F)F)cc4F)CC3)c(C(N)=O)c2)cn1 [Example 140, 4-(2-carbamoyl-4-(1-methyl-1H-pyrazol-4-yl)phenoxy)-N-(2-fluoro-4-(trifluoromethoxy)phenyl)piperidine-1-carboxamide] |
| 10 nM | NC(=O)c1cc(-c2cc[nH]n2)cnc1OC1CCN(C(=O)Cc2ccc(SC(F)(F)F)cc2)CC1 [Example 60, 5-(1H-pyrazol-3-yl)-2-{[1-({4-[(trifluoromethyl)sulfanyl]phenyl}acetyl)piperidin-4-yl]oxy}pyridine-3-carboxamide] |
| 7 nM | NC(=O)c1cc(-c2cnn(C3CS(=O)(=O)C3)c2)cnc1O[C@H]1CCN(C(=O)Cc2ccc(OC3CC3)cn2)C[C@H]1F (racemic) [Example 39, 1:1 Cis-racemic 2-{[1-{[5-(cyclopropyloxy)pyridin-2-yl]acetyl}-3-fluoropiperidin-4-yl]oxy}-5-[1-(1,1-dioxidothietan-3-yl)-1H-pyrazol-4-yl]pyridine-3-carboxamide] |
| 6.4 nM | Cn1cnc(-c2ccc(O[C@@H]3CCN(C(=O)Cc4ccc(OC(F)(F)F)cc4)C[C@H]3F)c(C(N)=O)c2)c1 (single isomer, unassigned) [Example 112] |
| 4.4 nM | C[C@@H](CO)n1cc(-c2ccc(OC3CCN(C(=O)Cc4ccc(OC(F)(F)F)cc4)CC3)c(C(N)=O)c2)cn1 [Example 131, 5-{1-[(2S)-1-hydroxypropan-2-yl]-1H-pyrazol-4-yl}-2-[(1-{[4-(trifluoromethoxy)phenyl]acetyl}piperidin-4-yl)oxy]benzamide] |
| 4.16 nM | Cn1cc(-c2cc(C(N)=O)c(O[C@H]3CCN(C(=O)Cc4ccc(OC(F)(F)F)cc4)C[C@H]3F)nn2)cn1 [Example 156, 3-{[(3R,4S)-3-fluoro-1-{[4-(trifluoromethoxy)phenyl]acetyl}piperidin-4-yl]oxy}-6-(1-methyl-1H-pyrazol-4-yl)pyridazine-4-carboxamide] |
| 4 nM | NC(=O)c1cc(-c2ccc(N)nc2)ccc1OC1CCN(C(=O)Cc2ccc(OC(F)(F)F)cc2)CC1 [Example 104, 5-(6-aminopyridin-3-yl)-2-[(1-{[4-(trifluoromethoxy)phenyl]acetyl}piperidin-4-yl)oxy]benzamide] |
| 2.7 nM | Cn1cc(-c2ccc(OC3CCN(C(=O)Cc4ccc(SC(F)(F)F)cc4)CC3)c(C(N)=O)c2)cn1 [Example 108, 5-(1-methyl-1H-pyrazol-4-yl)-2-{[1-({4-[(trifluoromethyl)sulfanyl]phenyl}acetyl)piperidin-4-yl]oxy}benzamide] |
| 2 nM | NC(=O)c1cc(-c2cnn(C3CS(=O)(=O)C3)c2)cnc1O[C@H]1CCN(C(=O)Cc2ccc(OC(F)(F)F)cc2)C[C@H]1F (racemic) [Example 38, 1:1 Cis-racemic 5-[1-(1,1-dioxidothietan-3-yl)-1H-pyrazol-4-yl]-2-{[3-fluoro-1-{[4-(trifluoromethoxy)phenyl]acetyl}piperidin-4-yl]oxy}pyridine-3-carboxamide] |
| 1.3 nM | Cn1cc(-c2cnc(O[C@@H]3CCN(C(=O)Cc4ccc(OC(F)(F)F)cc4)C[C@@H]3F)c(C(N)=O)c2)cn1 [Example 71, 2-{[(3S,4R)-3-fluoro-1-{[4-(trifluoromethoxy)phenyl]acetyl}piperidin-4-yl]oxy}-5-(1-methyl-1H-pyrazol-4-yl)pyridine-3-carboxamide] |
| 1.2 nM | NC(=O)c1cc(-c2cnn(C3CS(=O)(=O)C3)c2)ccc1O[C@H]1CCN(C(=O)Cc2ccc(OC(F)(F)F)cc2)C[C@H]1F [Example 76, 5-[1-(1,1-dioxidothietan-3-yl)-1H-pyrazol-4-yl]-2-{[(3R,4S)-3-fluoro-1-{[4-(trifluoromethoxy)phenyl]acetyl}pipertdin-4-yl]oxy}benzamide] |

— US20170305857A1, “N-ACYLPIPERIDINE ETHER TROPOMYOSIN-RELATED KINASE INHIBITORS” (Pfizer Limited, priority 2014, published 2017)
